Data reported in patent US9302999B2, “Substituted triazoles as herbicides” (E. I. DU PONT DE NEMOURS AND COMPANY, priority 2012, dated 2016).

What was measured:
Type in all cases: in vivo
soybean (Glycine max) = experiment: Test C pre-/postemergence: soybean
Method in brief: (§1)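 Preemergence on seeds in loam/sand, postemergence on 2–18 cm (1–4-leaf) plants in peat-based medium; compounds in non-phytotoxic solvent with surfactant. After 13–15 days in greenhouse, visual rating versus controls, 0 (no effect) to 100 (complete control).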

wild oat (Avena fatua) = experiment: Test C pre-/postemergence: wild oat; settings: Postemergence
Method in brief: as §1

corn (Zea mays) = experiment: Test C pre-/postemergence: corn
Method in brief: as §1

[1] = test system: ragweed (common ragweed, Ambrosia elation); experiment: Test C pre-/postemergence: ragweed
Method in brief: as §1

[2] = test system: crabgrass, large (large crabgrass, Digitaria sanguinalis); experiment: Test A pre-/postemergence: crabgrass, large
Method in brief: (§2)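 Each species received preemergence soil-directed spraying and, at the same time, postemergence treatment of seedlings 2–10 cm tall. Formulation: non-phytotoxic solvent mixture including surfactant. Response assessed visually about ten days on, relative to untreated controls, 0–100 scale.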

[3] = test system: large crabgrass (Digitaria sanguinalis); experiment: Test C pre-/postemergence: large crabgrass
Method in brief: as §1

[4] = test system: winter wheat (Triticum aestivum); experiment: Test C pre-/postemergence: winter wheat
Method in brief: as §1

[5] = test system: blackgrass (Alopecurus myosuroides); experiment: Test C pre-/postemergence: blackgrass
Method in brief: as §1

[6] = test system: johnsongrass (Sorghum halepense); experiment: Test C pre-/postemergence: johnsongrass
Method in brief: as §1

[7] = test system: foxtail, giant (giant foxtail, Setaria faberii); experiment: Test A pre-/postemergence: foxtail, giant
Method in brief: as §2

[8] = test system: barnyardgrass (Echinochloa crus-galli); experiment: Test A pre-/postemergence: barnyardgrass
Method in brief: as §2

[9] = test system: nutsedge, yellow (yellow nutsedge, Cyperus esculentus); experiment: Test C pre-/postemergence: nutsedge, yellow
Method in brief: as §1

[10] = Postemergence, 31 g ai/ha, scale 0 to 100 (0 no effect, 100 complete control)
[11] = Postemergence, 62 g ai/ha, scale 0 to 100 (0 no effect, 100 complete control)
[12] = Postemergence, 125 g ai/ha, scale 0 to 100, 0 no effect, 100 complete control
[13] = Postemergence, 250 g ai/ha, scale 0 to 100 (0 no effect, 100 complete control)
[14] = Preemergence, 31 g ai/ha, scale 0 (no effect) to 100 (complete control)
[15] = Preemergence, 62 g ai/ha, scale of 0 to 100, 0 is no effect, 100 is complete control
[16] = Preemergence, 125 g ai/ha, scale 0 to 100, 0 no effect, 100 complete control
[17] = Preemergence, 250 g ai/ha, scale 0 to 100, 0 no effect, 100 complete control
[18] = Postemergence, 250 g ai/ha, scale 0 to 100
[19] = Postemergence, 125 g ai/ha, 0 to 100 scale, 0 is no effect, 100 is complete control
[20] = Postemergence, 500 g ai/ha, 0 to 100 scale, 0 is no effect, 100 is complete control
[21] = Preemergence, 125 g ai/ha, 0 to 100 scale where 0 is no effect and 100 is complete control
[22] = Preemergence, 500 g ai/ha, 0 to 100 scale (0 no effect, 100 complete control)

CCCc1nn(-c2ccc(C(F)(F)F)c(F)c2)nc1Oc1ccnc(C(F)(F)F)c1 [Compound 185]
15: Plant response rating, Corn (corn (Zea mays); [10]) | Plant response rating, Wheat [4, 11] | Plant response rating, Wheat [4, 12] | Plant response rating, Nutsedge, Yellow [9, 13]
30: Plant response rating, Oat, Wild (wild oat (Avena fatua); 62 g ai/ha, scale 0 to 100 (0 no effect, 100 complete control)) | Plant response rating, Johnsongrass [6, 11]
100: Plant response rating, Crabgrass, Large [2, 21] | Plant response rating, Crabgrass, Large [2, 22] | Plant response rating, Crabgrass, Large [3, 14] | Plant response rating, Crabgrass, Large [3, 15] | Plant response rating, Crabgrass, Large [3, 16] | Plant response rating, Crabgrass, Large [3, 17] | Plant response rating, Johnsongrass [6, 17] | Plant response rating, Foxtail, Giant [7, 21] | Plant response rating, Foxtail, Giant [7, 22] | Plant response rating, Barnyardgrass [8, 21] | Plant response rating, Barnyardgrass [8, 22]
5: Plant response rating, Soybean (soybean (Glycine max); [14]) | Plant response rating, Corn (corn (Zea mays); [14]) | Plant response rating, Corn (corn (Zea mays); [15]) | Plant response rating, Wheat [4, 10] | Plant response rating, Nutsedge, Yellow [9, 17]
40: Plant response rating, Soybean (soybean (Glycine max); [10]) | Plant response rating, Soybean (soybean (Glycine max); [16]) | Plant response rating, Soybean (soybean (Glycine max); [17]) | Plant response rating, Ragweed [1, 14] | Plant response rating, Crabgrass, Large [3, 11] | Plant response rating, Wheat [4, 15] | Plant response rating, Wheat [4, 16] | Plant response rating, Blackgrass [5, 11]
95: Plant response rating, Ragweed [1, 12] | Plant response rating, Ragweed [1, 13] | Plant response rating, Ragweed [1, 16] | Plant response rating, Ragweed [1, 17] | Plant response rating, Blackgrass [5, 15] | Plant response rating, Blackgrass [5, 16]
55: Plant response rating, Soybean (soybean (Glycine max); [13]) | Plant response rating, Oat, Wild (wild oat (Avena fatua); 125 g ai/ha, scale 0 to 100, 0 no effect, 100 complete control) | Plant response rating, Wheat [4, 17]
25: Plant response rating, Oat, Wild (wild oat (Avena fatua); 31 g ai/ha, scale 0 to 100 (0 no effect, 100 complete control)) | Plant response rating, Corn (corn (Zea mays); [12]) | Plant response rating, Corn (corn (Zea mays); [18]) | Plant response rating, Crabgrass, Large [3, 10] | Plant response rating, Johnsongrass [6, 14]
80: Plant response rating, Ragweed [1, 15] | Plant response rating, Crabgrass, Large [3, 18] | Plant response rating, Johnsongrass [6, 16]
50: Plant response rating, Blackgrass [5, 12] | Plant response rating, Blackgrass [5, 18]
75: Plant response rating, Ragweed [1, 10] | Plant response rating, Johnsongrass [6, 13]
45: Plant response rating, Soybean (soybean (Glycine max); [11]) | Plant response rating, Soybean (soybean (Glycine max); [12])
90: Plant response rating, Ragweed [1, 11] | Plant response rating, Crabgrass, Large [2, 19] | Crabgrass, Large plant response rating [2, 20] | Plant response rating, Blackgrass [5, 14] | Plant response rating, Foxtail, Giant [7, 19] | Foxtail, Giant plant response rating [7, 20] | Barnyardgrass plant response rating [8, 20]
98: Plant response rating, Blackgrass [5, 17]
60: Plant response rating, Oat, Wild (wild oat (Avena fatua); 250 g ai/ha, scale 0 to 100 (0 no effect, 100 complete control)) | Plant response rating, Crabgrass, Large [3, 12]
0: Plant response rating, Nutsedge, Yellow [9, 14] | Plant response rating, Nutsedge, Yellow [9, 15] | Plant response rating, Nutsedge, Yellow [9, 16]
35: Plant response rating, Corn (corn (Zea mays); [16]) | Plant response rating, Corn (corn (Zea mays); [17])
70: Plant response rating, Johnsongrass [6, 15] | Plant response rating, Barnyardgrass [8, 19]
65: Plant response rating, Johnsongrass [6, 12]
10: Plant response rating, Soybean (soybean (Glycine max); [15]) | Plant response rating, Wheat [4, 14] | Plant response rating, Johnsongrass [6, 10] | Plant response rating, Nutsedge, Yellow [9, 10] | Plant response rating, Nutsedge, Yellow [9, 11] | Plant response rating, Nutsedge, Yellow [9, 12]
20: Plant response rating, Corn (corn (Zea mays); [11]) | Plant response rating, Wheat [4, 13] | Plant response rating, Blackgrass [5, 10]
